Patent US5637501A, “Apparatus for automatically testing the antibiotic sensitivity of a paraffinophilic microorganism” (Infectech, Inc., priority 1995, dated 1997)
Where a name gives a salt, the structure may show the parent alone. Read-outs that look alike come from different tables or passages of the source.

System: MAI
Assay: antibiotic sensitivity (MIC) of MAI strains, paraffin slide culture and microliter assays
Format: cell-based, Mycobacterium avium-intracellulare
Design: key: NG: No Growth
From the text: The present invention has met the above-described need. In one embodiment, it provides a method of automatically testing the sensitivity of a paraffinophilic microorganism to different antimicrobial agents, such as antibiotics, and concentrations thereof, by providing a plurality of receptacles, each containing an amount of liquid medium, an antimicrobial agent to be tested and the microorganism to be tested. In each of the receptacles is placed a slide containing a paraffin source. The receptacles are then incubated, after which a light scatter sensing means automatically and sequentially monitors the extent of microorganism growth on the slides. The extent of colony growth is employed to determine which antimicrobial agent in which concentration is effective to resist growth of the microorganism. A preferred light scatter sensing means is a nephelometer.
Referring specifically to FIG. 1, there is shown a preferred embodiment of the present invention usable in a method of automatically testing the sensitivity of a pure culture of a microorganism to different antimicrobial agents and concentrations thereof. In this embodiment, a microorganism, which may have been previously speciated as by the technique taught in U.S. Pat. No. 5,153, 119, has been introduced into a plurality of receptacles, each containing an amount of liquid medium and antimicrobial agent to be tested. A paraffin slide is introduced into each of the receptacles which are subsequently incubated. The receptacles 2-22 (even numbers only) are fixedly secured to an elongated, substantially rigid movable carrier member 26, such that the receptacles 2-22 will be translated therewith in the direction shown by the arrow A. The carrier member 26 may be made of any suitable material, such as aluminum, steel, stainless steel, or resinous plastic, for example. The receptacles 2-22, respectively, contain slides 32-52 (even numbers only). The slides 32-52 are fixedly secured, respectively, within receptacles 2-22 which may test tubes. The slides 32-52 are generally oriented so as to have their elongated direction aligned with the direction of travel of the carrier 26. As the carrier moves in the direction of arrow A, the slides 2-22 will sequentially be positioned in operative relationship to the light scatter sensing means which consists of light source 60, which directs a light beam toward light detector 62. In the preferred embodiment, a beam of visible light from light source 60 will impinge upon slide 32, with the growth of the microorganism thereon producing a corresponding scatter of light which is received by the light receiving sensor 62 and converts the received light into an appropriate output electrical signal which will be delivered to computer means 64. The computer means 64, in turn, provides output to output means 66, which may conveniently be a display, such as a cathode ray tube or a hard copy printer, for example. The degree of light scatter will be related to the extent of microorganism growth with light scatter increasing as growth on the slide increases.
The computer means 64 may be a general purpose digital microprocessor. It may be programmed in a manner readily known to those skilled in the art to sequentially compare the light scatter value of each slide 32-52 with that of a control slide and to provide an output to output means 66, such as a visual screen display or hard copy, with or without prior enhancement, which indicates the difference between the control slide and the specific slides containing the same pure culture of a paraffinophilic microorganism, but exposed to different concentrations of different or the same antimicrobial agents, such an antibiotics. In this manner, there is provided the minimal concentration level of a specific antimicrobial agent that must be used to control growth of the microorganism. Also, the minimum bactericidal concentration may be determined. […]

O=C(O)c1cn(C2CC2)c2cc(N3CCNCC3)c(F)cc2c1=O [ciprofloxacin-HCl]
Days to Confluency (Exp. Series II, strain 1): 9 days | Days to Confluency (Exp. Series II, strain 2): 9 days | Days to Confluency (Exp. Series II, strain 3): NG | MIC (Exp. Series II, strain 3): NG | Days to Confluency (Exp. Series II, strain 4): 10 days | Days to Confluency (Exp. Series II, strain 5): 9 days | Days to Confluency (Exp. Series II, strain 6): 10 days | Days to Confluency (Exp. Series II, strain 7): 10 days | Days to Confluency (Exp. Series II, strain 8): 9 days | Days to Confluency (Exp. Series II, strain 9): 10 days | Days to Confluency (Exp. Series II, strain 10): 7 days | Days to Confluency (Exp. Series II, strain 11): 7 days | Days to Confluency (Exp. Series II, strain 12): 7 days | Days to Confluency (Exp. Series II, strain 13): 8 days | Days to Confluency (Exp. Series II, strain 14): 7 days | Days to Confluency (Exp. Series II, strain 15): 7 days | Days to Confluency (Exp. Series II, strain 16): 7 days | Days to Confluency (Exp. Series III, strain 1): 7 days | Days to Confluency (Exp. Series III, strain 2): 8 days | Days to Confluency (Exp. Series III, strain 3): 8 days | Days to Confluency (Exp. Series III, strain 4): 9 days | Days to Confluency (Exp. Series III, strain 5): 8 days | Days to Confluency (Exp. Series III, strain 6): 9 days | Days to Confluency (Exp. Series III, strain 7): 8 days | Days to Confluency (Exp. Series III, strain 8): 8 days | Days to Confluency (Exp. Series III, strain 9): 8 days | Days to Confluency (Exp. Series III, strain 10): 6 days | Days to Confluency (Exp. Series III, strain 11): 6 days | Days to Confluency (Exp. Series III, strain 12): 6 days | Days to Confluency (Exp. Series III, strain 13): 7 days | Days to Confluency (Exp. Series III, strain 14): 7 days | Days to Confluency (Exp. Series III, strain 15): 7 days | Days to Confluency (Exp. Series III, strain 16): 6 days | MIC (Mycobacterium avium-intracellulare, Exp. Series II, strain 1, read-out: MIC): 3.6 µg/mL | MIC (Mycobacterium avium-intracellulare, Exp. Series II, strain 2, read-out: MIC): 18.2 µg/mL | MIC (Mycobacterium avium-intracellulare, Exp. Series II, strain 4, read-out: MIC): 3.6 µg/mL | MIC (Mycobacterium avium-intracellulare, Exp. Series II, strain 5, read-out: MIC): 7.3 µg/mL | MIC (Mycobacterium avium-intracellulare, Exp. Series II, strain 6, read-out: MIC): 3.6 µg/mL | MIC (Mycobacterium avium-intracellulare, Exp. Series II, strain 7, read-out: MIC): 3.6 µg/mL | MIC (Mycobacterium avium-intracellulare, Exp. Series II, strain 8, read-out: MIC): 3.6 µg/mL | MIC (Mycobacterium avium-intracellulare, Exp. Series II, strain 9, read-out: MIC): 3.6 µg/mL | MIC (Mycobacterium avium-intracellulare, Exp. Series II, strain 10, read-out: MIC): 14.5 µg/mL | MIC (Mycobacterium avium-intracellulare, Exp. Series II, strain 11, read-out: MIC): 7.3 µg/mL | MIC (Mycobacterium avium-intracellulare, Exp. Series II, strain 12, read-out: MIC): 10.9 µg/mL | MIC (Mycobacterium avium-intracellulare, Exp. Series II, strain 13, read-out: MIC): 18.2 µg/mL | MIC (Mycobacterium avium-intracellulare, Exp. Series II, strain 14, read-out: MIC): 18.2 µg/mL | MIC (Mycobacterium avium-intracellulare, Exp. Series II, strain 15, read-out: MIC): 7.3 µg/mL | MIC (Mycobacterium avium-intracellulare, Exp. Series II, strain 16, read-out: MIC): 7.3 µg/mL | MIC (Mycobacterium avium-intracellulare, Exp. Series III, strain 1, read-out: MIC): 3.6 µg/mL | MIC (Mycobacterium avium-intracellulare, Exp. Series III, strain 2, read-out: MIC): 14.5 µg/mL | MIC (Mycobacterium avium-intracellulare, Exp. Series III, strain 3, read-out: MIC): 3.6 µg/mL | MIC (Mycobacterium avium-intracellulare, Exp. Series III, strain 4, read-out: MIC): 3.6 µg/mL | MIC (Mycobacterium avium-intracellulare, Exp. Series III, strain 5, read-out: MIC): 7.3 µg/mL | MIC (Mycobacterium avium-intracellulare, Exp. Series III, strain 6, read-out: MIC): 7.3 µg/mL | MIC (Mycobacterium avium-intracellulare, Exp. Series III, strain 7, read-out: MIC): 7.3 µg/mL | MIC (Mycobacterium avium-intracellulare, Exp. Series III, strain 8, read-out: MIC): 3.6 µg/mL | MIC (Mycobacterium avium-intracellulare, Exp. Series III, strain 9, read-out: MIC): 3.6 µg/mL | MIC (Mycobacterium avium-intracellulare, Exp. Series III, strain 10, read-out: MIC): 14.5 µg/mL | MIC (Mycobacterium avium-intracellulare, Exp. Series III, strain 11, read-out: MIC): 7.3 µg/mL | MIC (Mycobacterium avium-intracellulare, Exp. Series III, strain 12, read-out: MIC): 7.3 µg/mL | MIC (Mycobacterium avium-intracellulare, Exp. Series III, strain 13, read-out: MIC): > 18.2 µg/mL | MIC (Mycobacterium avium-intracellulare, Exp. Series III, strain 14, read-out: MIC): 14.5 µg/mL | MIC (Mycobacterium avium-intracellulare, Exp. Series III, strain 15, read-out: MIC): 7.3 µg/mL | MIC (Mycobacterium avium-intracellulare, Exp. Series III, strain 16, read-out: MIC): 3.6 µg/mL
